# Molecular target: T1, Pq3-O-UGT2 (Panax quinquefolius, UniProt A0A0M4ME80)
# T1 construct: pET-28a, C-terminal TEV site and 6xHis tag, E. coli Rosetta (DE3); Ni-NTA, HiTrap Q, Mono Q, Superdex 200; monomer; domains a.a; 1-442
# T1 sequence (A0A0M4ME80 1-442): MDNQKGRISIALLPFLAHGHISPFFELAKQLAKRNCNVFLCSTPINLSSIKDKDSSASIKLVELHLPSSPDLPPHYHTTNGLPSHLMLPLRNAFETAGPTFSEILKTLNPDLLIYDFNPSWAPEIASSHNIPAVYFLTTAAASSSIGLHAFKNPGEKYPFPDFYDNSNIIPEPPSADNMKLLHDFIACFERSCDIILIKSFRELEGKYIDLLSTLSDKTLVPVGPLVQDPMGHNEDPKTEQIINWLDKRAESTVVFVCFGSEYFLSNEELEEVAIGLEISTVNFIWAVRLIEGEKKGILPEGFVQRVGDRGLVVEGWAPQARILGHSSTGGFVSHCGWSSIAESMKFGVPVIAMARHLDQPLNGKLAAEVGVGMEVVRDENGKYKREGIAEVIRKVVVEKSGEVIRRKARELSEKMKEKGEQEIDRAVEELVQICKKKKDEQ
# Assay: X-ray crystallography, co-crystal, […] Å
# Settings: acceptor-binding pocket in N-terminal domain
smiles,measurement,value
"CC(C)=CCC[C@](C)(O)[C@H]1CC[C@]2(C)[C@@H]1[C@H](O)C[C@@H]1[C@@]3(C)CC[C@H](O[C@@H]4O[C@H](CO)[C@@H](O)[C@H](O)[C@H]4O)C(C)(C)[C@@H]3CC[C@]12C [Rh2, Ginsenoside Rh2]","X-ray crystallography, co-crystal, 3.5 Å",we solved crystal structures of apo Pq3‐O‐UGT2 and its complex with Rh2
